How the values were obtained:
[1] = test system: LO2 (human normal hepatocytes); experiment: MTT antiproliferative assay, LO2 normal cells; assay type: cell-based; details: Hepatocyte, 72 h
Source text: (§1) All the synthesized compounds were screened for in vitro antiproliferative activity against four human cancer cell lines A549 (human lung cancer cell line), KB (human oral epidermoid carcinoma cell line), Hela (human cervical carcinoma cell line), MCF-7 (human breast cancer cell line) and two human normal cell lines HUVEC (human umbilical vein endothelial cell) and LO2 (human normal hepatocytes) through the 3-(4,5-dimethyl-2-thiazolyl)-2,5-diphenyl-2-H-tetrazolium bromide (MTT) assay.
(§2) Non-small-cell lung cancer (A549), oral epidermoid carcinoma (KB), cervical cancer (Hela) and breast cancer (MCF-7) cells were purchased from the American Type Culture Collection (ATCC, America). Human umbilical vein endothelial cell (HUVEC) and human normal hepatocytes (LO2) cells were provided by Guangzhou Medical University (Guangzhou, China). A549 and KB cells were cultured in RMPI-1640 medium (Gibco, America). Hela, MCF-7 and LO2 cells were cultured in DMEM medium (Gibco, America). HUVEC cells were cultured in Ham’s F-12K medium (Gibco, America). All the mediums were supplemented with 10% fetal bovine serum (FBS) (BI, State of Israel), 100 U/mL penicillin and 100 μg/mL streptomycin (Gibco, America), and all the cells were incubated in a sterile incubator at 37°C in an environment of 5% CO2. The tested compounds were dissolved in dimethyl sulfoxide (DMSO) at a concentration of 10 mM, and then diluted into different concentration of solutions by culture medium. The final concentration of DMSO was <0.01% (v/v) in all drug treatment groups to avoid the toxicity in the biological system. Untreated cells were used as a blank control and 5-fluorouracil treated cells were used as a positive control.
(§3) The incubated tumor cells were planted into 96-well plates (4×10^3 cells/well). After 24 h, the cells were adherent to the wall and treated with the compound 6e in different concentrations (0.78, 1.56, 3.12, 6.25, 12.50, 25.00, and 50.00 μM) for 72 h. Afterwards, the medium was supplemented with 10 µL MTT solution. After 4 h, the culture medium was removed and 100 µL DMSO was added. The absorbance was determined at the wavelength of 540 nm and 655 nm using a microplate reader (BioTek Epoch, America). The results were collected from three independent experiments. The IC50 was then calculated by using GraphPad Prism Software (version 7.0) and non-linear regression (curve fit).

[2] = test system: MCF-7 (human breast cancer cell line); experiment: MTT antiproliferative assay, MCF-7; assay type: cell-based; details: MCF7, 72 h
Source text: as §1, §2, §3

[3] = test system: Hela (human cervical carcinoma cell line); experiment: MTT antiproliferative assay, Hela; assay type: cell-based; details: 72 h
Source text: as §1, §2, §3

[4] = test system: A549 (human lung cancer cell line); experiment: MTT antiproliferative assay, A549; assay type: cell-based; details: for IC50: Homo sapiens, A549, MTT, 72 h
Source text: as §1, §2, §3

[5] = test system: KB (human oral epidermoid carcinoma cell line); experiment: MTT antiproliferative assay, KB; assay type: cell-based; details: Homo sapiens; MTT, 72 h
Source text: as §1, §2, §3

[6] = test system: HUVEC (human umbilical vein endothelial cell); experiment: MTT antiproliferative assay, HUVEC normal cells; assay type: cell-based; details: 72 h
Source text: as §1, §2, §3

[7] = test system: various human cancer cells; parameters: method as in Yan et al., 2022; details: ref Yan et al., 2022; read-out: IC50 values, anti-proliferative activities towards various human cancer cells; cited from earlier work

| SMILES | IC50 [1] | IC50 [2] | IC50 [3] | IC50 [4] | IC50 [5] | IC50 [6] | melting point | IC50 [7] | more potent than 5a and 5-FU ([4]; A549 cells, relative to 5a and 5-FU) |
| --- | --- | --- | --- | --- | --- | --- | --- | --- | --- |
| O=c1[nH]cc(F)c(=O)[nH]1 [5-FU, 5-Fluorouracil, reference compound] | 10.68 ± 0.03 µM | 19.2 ± 3.29 µM | 1.37 ± 1.72 µM | 7.41 ± 0.09 µM | 5.75 ± 2.23 µM | 4.08 ± 0.06 µM | – | – | – |
| CCOc1ccc2cc(C(Cl)=CC=O)c(=O)oc2c1 [Compound 6b, 3-Chloro-3-(7-ethoxy-2-oxo-2H-chromen-3-yl)acrylaldehyde] | > 100 µM | 23.29 ± 0.2 µM | 2.91 ± 0.17 µM | 11.34 ± 0.07 µM | > 100 µM | > 100 µM | 195 to 196 °C | – | – |
| COc1ccc2cc(C(Cl)=CC=O)c(=O)oc2c1 [Compound 6a, 3-Chloro-3-(7-methoxy-2-oxo-2H-chromen-3-yl)acrylaldehyde] | 61.04 ± 0.03 µM | 12.4 ± 0.49 µM | > 100 µM | 2.78 ± 0.01 µM | 3.41 ± 0.4 µM | 10.09 ± 0.07 µM | 202 to 203 °C | – | – |
| CC(C)Oc1ccc2cc(C(Cl)=CC=O)c(=O)oc2c1 [Compound 6d, 3-Chloro-3-(7-isopropoxy-2-oxo-2H-chromen-3-yl)acrylaldehyde] | 33.27 ± 0.02 µM | 51.63 ± 0.13 µM | 22.7 ± 0.21 µM | 5.61 ± 0.01 µM | 4.28 ± 0.02 µM | 31.92 ± 0.07 µM | 149 to 151 °C | – | – |
| O=CC=C(Cl)c1cc2ccc(OCc3cccc(Br)c3)cc2oc1=O [Compound 6g, 3-(7-((3-Bromobenzyl)oxy)-2-oxo-2H-chromen-3-yl)-3-chloroacrylaldehyde] | > 100 µM | 5.13 ± 0.07 µM | > 100 µM | > 100 µM | > 100 µM | > 100 µM | 217 to 219 °C | – | – |
| CCCOc1ccc2cc(C(Cl)=CC=O)c(=O)oc2c1 [Compound 6c, 3-Chloro-3-(2-oxo-7-propoxy-2H-chromen-3-yl)acrylaldehyde] | 43.52 ± 0.03 µM | 1.73 ± 0.01 µM | > 100 µM | 6.28 ± 0.04 µM | 4.54 ± 0.11 µM | 53.92 ± 0.46 µM | 150 to 152 °C | – | – |
| O=CC=C(Cl)c1cc2cc(O)ccc2oc1=O [Compound 5e, 3-Chloro-3-(6-hydroxy-2-oxo-2H-chromen-3-yl)acrylaldehyde] | 14.11 ± 0.04 µM | 8.71 ± 0.31 µM | > 100 µM | 6.67 ± 0.01 µM | 3.23 ± 0.3 µM | 34.84 ± 0.11 µM | 250 to 252 °C | – | – |
| Cc1ccc2oc(=O)c(C(Cl)=CC=O)cc2c1 [Compound 5f, 3-Chloro-3-(6-methyl-2-oxo-2H-chromen-3-yl)acrylaldehyde] | 25.01 ± 0.03 µM | 20.1 ± 0.32 µM | 3.82 ± 0.11 µM | 4.57 ± 0.01 µM | 2.22 ± 0.04 µM | 27.38 ± 0.24 µM | 179 to 181 °C | – | – |
| O=CC=C(Cl)c1cc2ccccc2oc1=O [Compound 5a, 3-Chloro-3-(2-oxo-2H-chromen-3-yl)acrylaldehyde] | 40.34 ± 0.02 µM | 3.55 ± 0.17 µM | 1.01 ± 0.28 µM | 7.97 ± 0.01 µM | 1.3 ± 0.02 µM | 22.8 ± 0.35 µM | 167 to 169 °C | – | – |
| COc1ccc2c(/C=C(\C)C(=O)c3cc(OC)c(OC)c([Se]C)c3)c[nH]c2c1 [compound J] | – | – | – | – | – | – | – | 0.008 to 0.035 µM | – |
| CCN(CC)c1ccc2cc(C(Cl)=CC=O)c(=O)oc2c1 [Compound 5c, 3-Chloro-3-(7-(diethylamino)-2-oxo-2H-chromen-3-yl)acrylaldehyde] | 52.65 ± 0.07 µM | 18.99 ± 0.18 µM | 4.85 ± 0.19 µM | 7.51 ± 0.02 µM | 3.15 ± 0.09 µM | 6.42 ± 0.51 µM | 206 to 208 °C | – | – |
| O=CC=C(Cl)c1cc2ccc(OCc3ccc([N+](=O)[O-])cc3)cc2oc1=O [Compound 6f, 3-Chloro-3-(7-((4-nitrobenzyl)oxy)-2-oxo-2H-chromen-3-yl)acrylaldehyde] | > 100 µM | > 100 µM | > 100 µM | > 100 µM | > 100 µM | > 100 µM | 250 to 252 °C | – | – |
| O=CC=C(Cl)c1cc2ccc(Br)cc2oc1=O [Compound 5d, 3-(7-Bromo-2-oxo-2H-chromen-3-yl)-3-chloroacrylaldehyde] | 42.97 ± 0.04 µM | 4.23 ± 0.15 µM | 1.36 ± 0.43 µM | 0.7 ± 0.05 µM | 1.12 ± 0.03 µM | 10.52 ± 0.02 µM | 182 to 183 °C | – | 10 fold |
| O=CC=C(Cl)c1cc2cc(Br)ccc2oc1=O [Compound 5g, 3-(6-Bromo-2-oxo-2H-chromen-3-yl)-3-chloroacrylaldehyde] | 66.36 ± 0.09 µM | 9.25 ± 0.1 µM | 13.4 ± 0.22 µM | 2.45 ± 0.01 µM | 0.87 ± 0.01 µM | 10.9 ± 0.02 µM | 199 to 201 °C | – | – |
| O=CC=C(Cl)c1cc2ccc(O)cc2oc1=O [Compound 5b, 3-Chloro-3-(7-hydroxy-2-oxo-2H-chromen-3-yl)acrylaldehyde] | > 100 µM | 6.74 ± 0.64 µM | > 100 µM | > 100 µM | > 100 µM | > 100 µM | 204 to 205 °C | – | – |

From article PMC10076643, “Design, synthesis and anticancer activity studies of 3-(coumarin-3-yl)-acrolein derivatives: Evidenced by integrating network pharmacology and vitro assay” (Frontiers in Pharmacology, 2023)
